# Laboratory results from PubChem BioAssay (NCI).
#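 Interpolation was linear, between the two tested concentrations surrounding the appropriate level; five concentrations were tested over 48 hours in 96-well plates. Here, GI50 denotes the concentration required for 50% inhibition of growth. TGI marks complete inhibition of growth.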
# Experiments:
# Assay in all cases: NCI anticancer screen, dose series, 48 h
# 786-0 renal = test system: 786-0 renal
# A498 renal = test system: A498 renal
# A549 NSCLC = test system: A549 NSCLC
# ACHN renal = test system: ACHN renal
# BT-549 breast = test system: BT-549 breast
# CAKI-1 renal = test system: CAKI-1 renal
# COLO 205 colon = test system: COLO 205 colon
# DU-145 prostate = test system: DU-145 prostate
# EKVX NSCLC = test system: EKVX NSCLC
# HCC-2998 colon = test system: HCC-2998 colon
# HCT-116 colon = test system: HCT-116 colon
# HCT-15 colon = test system: HCT-15 colon
# HOP-92 NSCLC = test system: HOP-92 NSCLC
# HS 578T breast = test system: HS 578T breast
# HT29 colon = test system: HT29 colon
# IGROV1 ovarian = test system: IGROV1 ovarian
# KM12 colon = test system: KM12 colon
# LOX IMVI melanoma = test system: LOX IMVI melanoma
# M14 melanoma = test system: M14 melanoma
# MALME-3M melanoma = test system: MALME-3M melanoma
# MCF7 breast = test system: MCF7 breast
# MDA-MB-231 breast = test system: MDA-MB-231 breast
# MDA-MB-435 = test system: MDA-MB-435
# NCI-H226 lung = test system: NCI-H226 lung
# NCI-H23 lung = test system: NCI-H23 lung
# NCI-H460 lung = test system: NCI-H460 lung
# NCI-H522 lung = test system: NCI-H522 lung
# NCI/ADR-RES ovarian = test system: NCI/ADR-RES ovarian
# OVCAR-3 ovarian = test system: OVCAR-3 ovarian
# OVCAR-4 ovarian = test system: OVCAR-4 ovarian
# OVCAR-5 ovarian = test system: OVCAR-5 ovarian
# OVCAR-8 ovarian = test system: OVCAR-8 ovarian
# PC-3 prostate = test system: PC-3 prostate
# RPMI-8226 leukemia = test system: RPMI-8226 leukemia
# RXF 393 renal = test system: RXF 393 renal
# SF-268 CNS = test system: SF-268 CNS
# SF-295 CNS = test system: SF-295 CNS
# SF-539 CNS = test system: SF-539 CNS
# SK-MEL-2 melanoma = test system: SK-MEL-2 melanoma
# SK-MEL-28 melanoma = test system: SK-MEL-28 melanoma
# SK-MEL-5 melanoma = test system: SK-MEL-5 melanoma
# SK-OV-3 ovarian = test system: SK-OV-3 ovarian
# SN12C renal = test system: SN12C renal
# SNB-19 CNS = test system: SNB-19 CNS
# SNB-75 CNS = test system: SNB-75 CNS
# SW-620 colon = test system: SW-620 colon
# T-47D breast = test system: T-47D breast
# TK-10 renal = test system: TK-10 renal
# U251 CNS = test system: U251 CNS
# UACC-257 melanoma = test system: UACC-257 melanoma
# UACC-62 melanoma = test system: UACC-62 melanoma
# UO-31 renal = test system: UO-31 renal
compound,measurement,setting,value
CCCCCCCCc1cc[n+](CC(=O)c2ccc(Br)cc2)cc1,GI50,786-0 renal,1870 nM
same,TGI,786-0 renal,3300 nM
same,GI50,A498 renal,4420 nM
same,TGI,A498 renal,18100 nM
same,GI50,A549 NSCLC,1770 nM
same,TGI,A549 NSCLC,3250 nM
same,GI50,ACHN renal,1640 nM
same,TGI,ACHN renal,2990 nM
same,GI50,BT-549 breast,2440 nM
same,TGI,BT-549 breast,5520 nM
same,GI50,CAKI-1 renal,1370 nM
same,TGI,CAKI-1 renal,2840 nM
same,GI50,COLO 205 colon,1090 nM
same,TGI,COLO 205 colon,2280 nM
same,GI50,DU-145 prostate,1510 nM
same,TGI,DU-145 prostate,2860 nM
same,GI50,EKVX NSCLC,1380 nM
same,TGI,EKVX NSCLC,2800 nM
same,GI50,HCC-2998 colon,1610 nM
same,TGI,HCC-2998 colon,2960 nM
same,GI50,HCT-116 colon,1190 nM
same,TGI,HCT-116 colon,2490 nM
same,GI50,HCT-15 colon,1640 nM
same,TGI,HCT-15 colon,3200 nM
same,GI50,HOP-92 NSCLC,1470 nM
same,TGI,HOP-92 NSCLC,4100 nM
same,GI50,HS 578T breast,1860 nM
same,TGI,HS 578T breast,3750 nM
same,GI50,HT29 colon,580 nM
same,TGI,HT29 colon,1970 nM
same,GI50,IGROV1 ovarian,1090 nM
same,TGI,IGROV1 ovarian,2450 nM
same,GI50,KM12 colon,1490 nM
same,TGI,KM12 colon,2810 nM
same,GI50,LOX IMVI melanoma,1570 nM
same,TGI,LOX IMVI melanoma,2910 nM
same,GI50,M14 melanoma,1750 nM
same,TGI,M14 melanoma,3240 nM
same,GI50,MALME-3M melanoma,1690 nM
same,TGI,MALME-3M melanoma,3500 nM
same,GI50,MCF7 breast,1520 nM
same,TGI,MCF7 breast,2840 nM
same,GI50,MDA-MB-231 breast,1450 nM
same,TGI,MDA-MB-231 breast,2850 nM
same,GI50,MDA-MB-435,1540 nM
same,TGI,MDA-MB-435,2970 nM
same,GI50,NCI-H226 lung,1510 nM
same,TGI,NCI-H226 lung,3010 nM
same,GI50,NCI-H23 lung,1480 nM
same,TGI,NCI-H23 lung,2990 nM
same,GI50,NCI-H460 lung,1650 nM
same,TGI,NCI-H460 lung,3070 nM
same,GI50,NCI-H522 lung,1020 nM
same,TGI,NCI-H522 lung,2260 nM
same,GI50,NCI/ADR-RES ovarian,8770 nM
same,TGI,NCI/ADR-RES ovarian,21900 nM
same,GI50,OVCAR-3 ovarian,1440 nM
same,TGI,OVCAR-3 ovarian,2750 nM
same,GI50,OVCAR-4 ovarian,1110 nM
same,TGI,OVCAR-4 ovarian,2310 nM
same,GI50,OVCAR-5 ovarian,1460 nM
same,TGI,OVCAR-5 ovarian,2900 nM
same,GI50,OVCAR-8 ovarian,1680 nM
same,TGI,OVCAR-8 ovarian,3220 nM
same,GI50,PC-3 prostate,1510 nM
same,TGI,PC-3 prostate,3000 nM
same,GI50,RPMI-8226 leukemia,1770 nM
same,TGI,RPMI-8226 leukemia,3790 nM
same,GI50,RXF 393 renal,1690 nM
same,TGI,RXF 393 renal,3170 nM
same,GI50,SF-268 CNS,1580 nM
same,TGI,SF-268 CNS,2920 nM
same,GI50,SF-295 CNS,1440 nM
same,TGI,SF-295 CNS,2830 nM
same,GI50,SF-539 CNS,1610 nM
same,TGI,SF-539 CNS,2960 nM
same,GI50,SK-MEL-2 melanoma,1610 nM
same,TGI,SK-MEL-2 melanoma,3030 nM
same,GI50,SK-MEL-28 melanoma,1640 nM
same,TGI,SK-MEL-28 melanoma,3040 nM
same,GI50,SK-MEL-5 melanoma,1510 nM
same,TGI,SK-MEL-5 melanoma,2890 nM
same,GI50,SK-OV-3 ovarian,1530 nM
same,TGI,SK-OV-3 ovarian,2950 nM
same,GI50,SN12C renal,1550 nM
same,TGI,SN12C renal,2980 nM
same,GI50,SNB-19 CNS,1590 nM
same,TGI,SNB-19 CNS,3310 nM
same,GI50,SNB-75 CNS,1280 nM
same,TGI,SNB-75 CNS,2540 nM
same,GI50,SW-620 colon,1410 nM
same,TGI,SW-620 colon,2770 nM
same,GI50,T-47D breast,1640 nM
same,TGI,T-47D breast,3140 nM
same,GI50,TK-10 renal,1400 nM
same,TGI,TK-10 renal,2700 nM
same,GI50,U251 CNS,1470 nM
same,TGI,U251 CNS,2790 nM
same,GI50,UACC-257 melanoma,1640 nM
same,TGI,UACC-257 melanoma,3110 nM
same,GI50,UACC-62 melanoma,1440 nM
same,TGI,UACC-62 melanoma,2760 nM
same,GI50,UO-31 renal,1490 nM
same,TGI,UO-31 renal,3190 nM
